Experiment [1] has as its system heart, skeletal muscle, skin, brain. Kind of experiment: In vivo translocation of peptide-displaying phage into tissue parenchyma. On the set-up: species or system mouse. As to the method:
(§1) Another method used was to perfuse murine hearts ex-vivo on a Langendorf apparatus, administer the phage through the coronary circulation, and then rescue the phage that entered the myocardium. In vivo experiments were also done in which phage was injected into the general circulation of a mouse, any phage binding to the vasculature was removed by treatment with an enzyme solution, and then phage that had entered tissue parenchyma were rescued and enriched.

Experiment [2] has as its system skin. Nature of the experiment: Homing of peptide after intravenous delivery in vivo. On the set-up: species or system mouse. As to the method: as §1
Experiment [3] deals with parenchyma of the heart (myocardium). Nature of the experiment: Uptake of rhodamine-labeled peptide into heart after coronary infusion. In kind it is in vivo, mouse. Conditions: single pass infusion through the coronary circulation, FIGS. 4A-C. The source says:
In experiments designed to test the ability of these peptides to cross the endothelium and enter cells in vivo, synthetic transport peptides labeled with the fluorescent marker rhodamine were infused into the coronary circulation of mice. […] Peptides selected for internalization were capable of internalizing into the myocardium efficiently.
One such transport peptide is RRGRRRGR.

The subject of experiment [4] is endothelial cells (HUVEC cells). Kind of experiment: Internalization of rhodamine-labeled peptide into endothelial cells. In kind it is cell-based, human. The note with it: FIG. 3A. The source says:
(§2) To test the properties of the peptides defined, small scale synthesis of these peptides was ordered, labeled with rhodamine for fluorescent localization, from the Keck facility at Yale University. They were then used in in vitro and in vivo experiments to investigate the ability of these peptides to enter cells and tissues.
(§3) FIGS. 3A and 3B show pictures depicting highly efficient internalization of these peptides into cells in culture. One such transport peptide is RRGRRRGR.

Experiment [5] relates to rat aortic and adult human smooth muscle cells. Nature of the experiment: Internalization of rhodamine-labeled peptide into smooth muscle cells. It is filed as cell-based. The note with it: FIG. 3B.
Text: as §2, §3

Regarding LLAVPAA (Transport peptide), in experiment [1], the “crossing the blood brain barrier and entry into the brain” value is “appears capable of crossing the blood brain barrier and entry into the brain”. Further, the “translocating phage into tissues” value in experiment [1] (phage displaying the peptide, heart, skeletal muscle, skin) is “capable of translocating phage into heart, skeletal muscle, skin”.
Regarding GSRHPPL (Transport peptide), the “homing (tissue targeting)” value in experiment [2] is given as “appears to significantly target skin”.
As to RRGRRRGR (Transport peptide), the “uptake into the parenchyma of the heart” value in experiment [3] was “efficient uptake”. Moreover, the “uptake (internalization) into endothelial cells” value in experiment [4] is listed as “efficient uptake”. Further, the “uptake (internalization) into smooth muscle cells” value in experiment [5] was “efficient uptake”.

The values are drawn from patent US20050181474A1, “Transport peptides and uses therefor” (priority 2002, published 2005).
